Measured values reported in paper PMC7506137, “Selective Phosphodiesterase 1 Inhibitor BTTQ Reduces Blood Pressure in Spontaneously Hypertensive and Dahl Salt Sensitive Rats: Role of Peripheral Vasodilation” (Frontiers in Physiology, 2020).
Where “and” joins values, the source holds several entries; their conditions need not be identical. Equal entries are not always repeated.

Columns and labels:
Experiment in all cases: PDE scintillation proximity enzyme assay
Type in all cases: biochemical
Conditions in all cases: geometric mean (SD, n)
[1] = target: T1, Human PDE11A (Homo sapiens, UniProt Q9HCR9)
T1 construct: made in house; host or cells: baculovirus-infected insect cells
T1 sequence (Q9HCR9 whole entry): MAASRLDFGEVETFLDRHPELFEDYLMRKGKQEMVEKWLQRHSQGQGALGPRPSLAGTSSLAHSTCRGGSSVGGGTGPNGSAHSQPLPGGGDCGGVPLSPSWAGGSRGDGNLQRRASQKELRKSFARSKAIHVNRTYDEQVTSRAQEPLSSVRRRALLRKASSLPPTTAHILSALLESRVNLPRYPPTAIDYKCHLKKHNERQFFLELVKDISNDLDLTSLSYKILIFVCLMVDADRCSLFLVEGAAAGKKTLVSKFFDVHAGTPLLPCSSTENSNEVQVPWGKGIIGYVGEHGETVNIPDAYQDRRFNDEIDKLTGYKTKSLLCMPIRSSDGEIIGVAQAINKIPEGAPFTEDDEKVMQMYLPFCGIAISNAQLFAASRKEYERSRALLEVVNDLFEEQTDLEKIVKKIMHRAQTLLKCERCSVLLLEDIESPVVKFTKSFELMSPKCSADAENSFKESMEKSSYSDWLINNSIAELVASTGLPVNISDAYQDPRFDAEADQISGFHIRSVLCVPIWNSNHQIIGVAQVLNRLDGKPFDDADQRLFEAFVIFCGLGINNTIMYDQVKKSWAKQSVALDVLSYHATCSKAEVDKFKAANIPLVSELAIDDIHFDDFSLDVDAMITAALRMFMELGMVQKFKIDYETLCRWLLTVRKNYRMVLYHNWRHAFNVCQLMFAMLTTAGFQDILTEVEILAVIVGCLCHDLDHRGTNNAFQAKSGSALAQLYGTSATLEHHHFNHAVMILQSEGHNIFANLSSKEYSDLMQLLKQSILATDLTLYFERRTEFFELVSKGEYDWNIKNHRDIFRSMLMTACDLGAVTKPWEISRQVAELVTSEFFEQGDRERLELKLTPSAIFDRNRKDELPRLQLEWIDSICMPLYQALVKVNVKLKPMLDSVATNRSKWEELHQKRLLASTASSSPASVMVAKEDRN
Experimental: (§1) All PDE proteins were expressed in baculoviral infected insect cells using standard methods [pFastBac, pFastBac Dual (Invitrogen), pIEX4 (Novagen)]. See Supplementary Table 1 for DNA sequences, construct boundaries, affinity tags, and expression vectors. HIS6 tagged PDE proteins were purified using Ni-NTA agarose (Qiagen) followed by size exclusion chromatography on a Superdex 200 column (GE Healthcare) in storage buffer (20 mM Tris-HCl, pH 7.5, 150 mM NaCl, 10% Glycerol). FLAG-tagged PDE proteins including the PDE6A/6B heterodimer were purified using anti-FLAG M2-agarose (Sigma-Aldrich), after purification through NiNTA column chromatography and eluted in storage buffer (50 mM Tris-HCl, pH 7.5, 150 mM NaCl, 10% Glycerol, 0.1 mg/ml Flag peptide). All purified proteins were stored at −80°C in small aliquots.
(§2) All PDE enzyme activities were measured with a yittrium silicate based scintillation proximity assay that detects radioactive nucleotide monophosphates but not cyclic monophosphates. Assays are conducted in a total volume of 50 μl in 384 well plates (3706, Corning): comprised of 24 μl enzyme, 1 μl compound, and 25 μl of cyclic nucleotide. The general assay buffer consists of 50 mM Tris-HCl (pH 7.5) and 0.1% (w/v) bovine serum albumin (Fatty Acid Free, Sigma-Aldrich). Enzyme concentrations, substrate concentrations, and various PDE-specific buffer additives are described in Supplementary Table 1. Compounds to be tested are diluted in pure dimethyl sulfoxide (DMSO) using 10-point concentration-response curves, and 1 μl is acoustically dispensed into assay plates using the Echo555 (LabCyte). Maximal compound concentration in the reaction mixture is either 10 or 100 μM. Compounds at the appropriate concentration are pre-incubated with either of the PDE enzymes for 30 min before the reaction is started by the addition of substrate ([8-^3H]-cAMP, 20.7 Ci/mmol or [8-^3H]-cGMP; 6.5 Ci/mmol, Perkin Elmer). Reactions are allowed to proceed for 60 min at room temperature before quenching. Next, reactions are stopped by the addition of 400 μg/per well SPA beads (RPNQ0150, Perkin Elmer) and a potent non-selective PDE inhibitor to quench the reaction. Bead bound radioactivity (product) is quantified 12 h later a Microbeta counter (Perkin Elmer). Data is normalized to % inhibition using standard methods ([Campbell et al., 2004]), and IC50 values were plotted using PRISM (GraphPad Software) using the 4 parameter logistic equation ([Campbell et al., 2004]). Data for potency values are expressed as the geometric mean and arithmetic standard deviation.

[2] = target: T2, Human PDE1A (Homo sapiens, UniProt P54750)
T2 construct: made in house; host or cells: baculovirus-infected insect cells
T2 sequence (P54750 whole entry): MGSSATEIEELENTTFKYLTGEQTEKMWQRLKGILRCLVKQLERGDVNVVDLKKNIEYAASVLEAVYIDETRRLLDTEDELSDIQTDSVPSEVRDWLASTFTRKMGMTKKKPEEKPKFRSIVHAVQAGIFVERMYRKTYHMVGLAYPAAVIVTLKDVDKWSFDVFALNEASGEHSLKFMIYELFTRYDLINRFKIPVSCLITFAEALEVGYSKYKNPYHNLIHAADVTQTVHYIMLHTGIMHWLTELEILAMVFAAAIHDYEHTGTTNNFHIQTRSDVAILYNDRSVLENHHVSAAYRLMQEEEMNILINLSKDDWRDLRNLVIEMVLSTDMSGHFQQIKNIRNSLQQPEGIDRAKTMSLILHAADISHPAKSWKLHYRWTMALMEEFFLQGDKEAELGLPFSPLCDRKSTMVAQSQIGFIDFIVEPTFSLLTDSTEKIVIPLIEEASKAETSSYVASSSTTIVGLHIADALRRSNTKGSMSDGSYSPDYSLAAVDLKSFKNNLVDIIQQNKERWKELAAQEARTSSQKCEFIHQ
Experimental: as §1, §2

[3] = target: T3, Human PDE1B (Homo sapiens, UniProt Q01064)
T3 construct: made in house; host or cells: baculovirus-infected insect cells
T3 sequence (Q01064 whole entry): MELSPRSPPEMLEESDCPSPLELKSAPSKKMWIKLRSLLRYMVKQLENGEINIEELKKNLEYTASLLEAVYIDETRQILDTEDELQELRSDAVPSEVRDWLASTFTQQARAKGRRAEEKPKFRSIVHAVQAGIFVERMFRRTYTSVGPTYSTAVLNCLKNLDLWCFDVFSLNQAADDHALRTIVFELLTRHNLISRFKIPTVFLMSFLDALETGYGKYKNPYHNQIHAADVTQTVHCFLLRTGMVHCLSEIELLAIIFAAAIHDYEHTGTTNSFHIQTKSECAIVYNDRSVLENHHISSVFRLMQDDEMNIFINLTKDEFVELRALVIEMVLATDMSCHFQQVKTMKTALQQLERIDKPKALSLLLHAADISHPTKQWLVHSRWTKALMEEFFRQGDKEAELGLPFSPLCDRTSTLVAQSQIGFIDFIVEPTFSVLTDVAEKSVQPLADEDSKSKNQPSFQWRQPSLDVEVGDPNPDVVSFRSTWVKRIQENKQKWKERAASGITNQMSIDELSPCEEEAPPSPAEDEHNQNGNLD
Experimental: as §1, §2

[4] = target: T4, Human PDE1C (Homo sapiens, UniProt Q14123)
T4 construct: made in house; host or cells: baculovirus-infected insect cells
T4 sequence (Q14123 whole entry): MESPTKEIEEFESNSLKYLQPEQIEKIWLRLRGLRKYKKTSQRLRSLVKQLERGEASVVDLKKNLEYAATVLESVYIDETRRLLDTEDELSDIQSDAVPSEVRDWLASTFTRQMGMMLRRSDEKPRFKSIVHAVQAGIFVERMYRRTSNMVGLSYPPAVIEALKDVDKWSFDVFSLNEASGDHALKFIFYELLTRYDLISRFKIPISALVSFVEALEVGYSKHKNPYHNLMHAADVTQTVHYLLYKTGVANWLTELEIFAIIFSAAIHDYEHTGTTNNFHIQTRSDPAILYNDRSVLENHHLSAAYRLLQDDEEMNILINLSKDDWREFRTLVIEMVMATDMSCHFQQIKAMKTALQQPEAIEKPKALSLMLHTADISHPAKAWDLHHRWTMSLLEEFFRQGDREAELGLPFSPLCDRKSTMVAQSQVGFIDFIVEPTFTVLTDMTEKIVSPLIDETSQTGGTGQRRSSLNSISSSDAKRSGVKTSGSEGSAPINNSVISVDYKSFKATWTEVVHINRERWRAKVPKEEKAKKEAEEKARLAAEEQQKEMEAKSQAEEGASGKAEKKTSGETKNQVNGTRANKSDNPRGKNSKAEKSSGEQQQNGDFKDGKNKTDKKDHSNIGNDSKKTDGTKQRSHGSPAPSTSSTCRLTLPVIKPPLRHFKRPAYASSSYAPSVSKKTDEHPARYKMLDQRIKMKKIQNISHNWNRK
Experimental: as §1, §2

[5] = target: T5, Human PDE4D (Homo sapiens, UniProt Q08499)
T5 construct: made in house; host or cells: baculovirus-infected insect cells
T5 sequence (Q08499 whole entry): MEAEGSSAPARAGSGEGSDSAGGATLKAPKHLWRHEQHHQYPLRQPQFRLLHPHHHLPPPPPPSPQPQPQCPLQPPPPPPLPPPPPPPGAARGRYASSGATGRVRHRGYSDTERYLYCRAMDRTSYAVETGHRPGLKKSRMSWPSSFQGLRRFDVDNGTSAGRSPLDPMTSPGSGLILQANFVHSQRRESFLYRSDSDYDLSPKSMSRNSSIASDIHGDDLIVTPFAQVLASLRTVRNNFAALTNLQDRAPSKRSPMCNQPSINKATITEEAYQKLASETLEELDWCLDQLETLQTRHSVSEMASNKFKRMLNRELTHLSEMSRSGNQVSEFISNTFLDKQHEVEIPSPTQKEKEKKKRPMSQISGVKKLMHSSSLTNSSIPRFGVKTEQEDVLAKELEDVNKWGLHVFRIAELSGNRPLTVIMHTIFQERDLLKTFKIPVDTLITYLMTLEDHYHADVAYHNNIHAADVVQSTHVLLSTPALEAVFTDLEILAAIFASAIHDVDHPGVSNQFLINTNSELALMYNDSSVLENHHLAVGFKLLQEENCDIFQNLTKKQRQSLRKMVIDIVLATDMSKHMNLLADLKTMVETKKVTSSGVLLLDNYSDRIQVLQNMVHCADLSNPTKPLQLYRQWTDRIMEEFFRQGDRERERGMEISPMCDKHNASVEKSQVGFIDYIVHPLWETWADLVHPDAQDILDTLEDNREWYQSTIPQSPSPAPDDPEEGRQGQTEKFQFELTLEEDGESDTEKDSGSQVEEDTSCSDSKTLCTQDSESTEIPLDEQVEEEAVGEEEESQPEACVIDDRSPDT
Experimental: as §1, §2

[6] = target: T6, Human PDE7B (Homo sapiens, UniProt Q9NP56)
T6 construct: made in house; host or cells: baculovirus-infected insect cells
T6 sequence (Q9NP56 whole entry): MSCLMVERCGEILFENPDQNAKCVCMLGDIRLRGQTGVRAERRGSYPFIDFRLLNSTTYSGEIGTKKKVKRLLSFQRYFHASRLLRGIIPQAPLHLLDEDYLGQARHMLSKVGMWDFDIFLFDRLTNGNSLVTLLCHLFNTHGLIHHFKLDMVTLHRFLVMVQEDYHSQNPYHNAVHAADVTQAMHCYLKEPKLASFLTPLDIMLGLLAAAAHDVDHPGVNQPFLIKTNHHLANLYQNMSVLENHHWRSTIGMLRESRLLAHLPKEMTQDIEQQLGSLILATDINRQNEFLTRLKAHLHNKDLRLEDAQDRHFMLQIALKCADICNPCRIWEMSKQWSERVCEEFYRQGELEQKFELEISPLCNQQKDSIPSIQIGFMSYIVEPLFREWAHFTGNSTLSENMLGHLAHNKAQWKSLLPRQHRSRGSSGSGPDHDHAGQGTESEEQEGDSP
Experimental: as §1, §2

IC50 [1]: 2400 nM | IC50 [2]: 1 nM | IC50 [3]: 0.5 nM and 0.45 nM | IC50 [4]: 0.14 nM | IC50 [5]: 12000 nM | IC50 [6]: 1600 nM
SMILES: O=c1c2nnc(C3(C4CC4)CC3)n2c2c(n1CC1CC1)CCCC2 [BTTQ, 1-[1,1′-bi(cyclopropyl)-1-yl]-5-(cyclopropylmethyl)-6,7,8,9-tetrahydro[1,2,4]triazolo[4,3-A]quinoxaline-4(5H)-one]
